Like-named read-outs stand apart in the source and are kept apart here.
Key:
Type in all cases: biochemical
PDK-1 = biological target: T1, PDK-1 (Homo sapiens, UniProt O15530); experiment: PDK-1 kinase inhibition ELISA assay (phosphorylation of His6-tagged SGK1 S422D by PDK-1)
T1 sequence (O15530 1-556): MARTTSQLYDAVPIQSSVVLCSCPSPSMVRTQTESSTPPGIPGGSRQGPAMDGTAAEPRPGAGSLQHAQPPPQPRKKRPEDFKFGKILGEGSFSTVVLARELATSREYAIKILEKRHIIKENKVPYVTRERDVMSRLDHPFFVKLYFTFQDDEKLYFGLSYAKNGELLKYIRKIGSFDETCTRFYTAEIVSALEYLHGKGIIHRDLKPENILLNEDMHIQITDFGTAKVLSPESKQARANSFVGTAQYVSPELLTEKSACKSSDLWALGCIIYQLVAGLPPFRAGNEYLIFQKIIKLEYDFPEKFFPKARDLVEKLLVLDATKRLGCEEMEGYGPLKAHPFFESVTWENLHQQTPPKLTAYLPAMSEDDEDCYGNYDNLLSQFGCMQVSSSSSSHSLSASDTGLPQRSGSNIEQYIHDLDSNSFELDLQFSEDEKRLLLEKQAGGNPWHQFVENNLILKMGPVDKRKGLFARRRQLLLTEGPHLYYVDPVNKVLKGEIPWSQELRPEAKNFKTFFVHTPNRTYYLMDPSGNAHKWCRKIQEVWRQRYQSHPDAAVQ

PKA = PKA (Homo sapiens, UniProt P17612); experiment: PKA kinase inhibition, Z'-LYTE FRET assay
S6K = S6K (Homo sapiens, UniProt P23443); experiment: S6K kinase inhibition, Z'-LYTE FRET assay; details: 100 μM ATP
Text: (§1) The ability of illustrative Benzo[c][2,7]naphthyridine Derivatives to inhibit PKA, Akt1, S6K in vitro can be determined using a Fluorescence Resonance Energy Transfer (FRET) assay, such as a Z′-LYTE™ Kinase Assay Platform, commercially available from Invitrogen (c.f. Rodems et al., ASSAY Drug Devel. Technol. 1:9-19 (2002) and Zhang et al., J. Biomol. Screen. 4:67-73 (1999)). Z′-Lyte™ assay is an in vitro FRET-based assay that utilizes differential sensitivity of phosphorylated and non-phosphorylated peptides to proteolytic cleavage. The peptide substrate (also available from Invitrogen for each of PKA, Akt1 and S6K) is labeled with two different fluorophores, a fluorescence donor at one end of the peptide and a fluorescence acceptor at the other end of the peptide. In the primary kinase reaction, the kinase phosphorylates the peptide substrate in the presence of ATP. In the secondary reaction, a site-specific protease recognizes and cleaves non-phosphorylated peptides, but not phosphorylated peptides. Cleavage disrupts FRET between the donor and acceptor fluorophores on the peptide, whereas uncleaved phosphorylated peptides maintain FRET. Based on a formula that uses the ratio of donor emission (at 460 nm) to acceptor emission (at […]) after excitation of the donor fluorophore at 400 nm, the extent of phosphorylation of the peptide substrates is calculated. IC50 values of illustrative Benzo[c][2,7]naphthyridine Derivatives, shown in Table 12, are calculated using LSW Data Analysis package add-in for Excel (Microsoft).

Akt1 = Akt1 (Homo sapiens, UniProt P31749); experiment: Akt1 kinase inhibition, Z'-LYTE FRET assay; details: 100 μM ATP
Text: as §1

[1] = PDK-1 ELISA, Table 11, read-out: Average IC50

Chain of Akt1 (P31749 whole entry, species assumed): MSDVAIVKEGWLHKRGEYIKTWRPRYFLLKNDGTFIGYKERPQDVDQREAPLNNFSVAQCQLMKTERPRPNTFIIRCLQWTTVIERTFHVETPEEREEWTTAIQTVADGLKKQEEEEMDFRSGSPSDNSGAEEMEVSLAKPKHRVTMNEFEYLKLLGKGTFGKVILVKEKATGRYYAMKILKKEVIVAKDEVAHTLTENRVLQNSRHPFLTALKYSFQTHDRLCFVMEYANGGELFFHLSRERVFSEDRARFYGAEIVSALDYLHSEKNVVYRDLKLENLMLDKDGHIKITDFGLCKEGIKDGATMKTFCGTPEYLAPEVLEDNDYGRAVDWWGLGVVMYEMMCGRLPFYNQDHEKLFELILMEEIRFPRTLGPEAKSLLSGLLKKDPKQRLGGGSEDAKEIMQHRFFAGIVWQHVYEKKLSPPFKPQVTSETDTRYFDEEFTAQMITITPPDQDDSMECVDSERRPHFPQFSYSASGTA
Chain of S6K (P23443 whole entry): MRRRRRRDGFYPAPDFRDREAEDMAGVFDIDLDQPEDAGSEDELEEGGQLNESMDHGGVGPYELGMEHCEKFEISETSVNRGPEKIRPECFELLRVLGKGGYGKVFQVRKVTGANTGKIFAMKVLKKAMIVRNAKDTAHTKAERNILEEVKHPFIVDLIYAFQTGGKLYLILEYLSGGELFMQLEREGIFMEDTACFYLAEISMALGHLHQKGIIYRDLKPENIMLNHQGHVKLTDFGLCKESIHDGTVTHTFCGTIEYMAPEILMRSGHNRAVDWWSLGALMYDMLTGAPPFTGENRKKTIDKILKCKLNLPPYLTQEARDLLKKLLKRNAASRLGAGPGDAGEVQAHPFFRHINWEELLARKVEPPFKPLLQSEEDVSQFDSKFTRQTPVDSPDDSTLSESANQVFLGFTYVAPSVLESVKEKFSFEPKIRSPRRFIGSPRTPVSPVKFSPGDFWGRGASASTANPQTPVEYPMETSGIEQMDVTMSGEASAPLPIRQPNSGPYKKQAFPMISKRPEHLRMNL

Row | IC50 (PDK-1; [1]) [nM] | IC50 (PKA; 20 μM ATP) [nM] | IC50 (PKA; 100 μM ATP) [nM] | IC50 (S6K) [nM] | IC50 (Akt1) [nM] | IC50 (PDK-1) [nM] | Compound
1 | 97 | 240 | > 2000 | 1030 | 75 |  | Nc1nc(-n2ccnc2)cc2c1cnc1cc(/C=C/CCN3CCCC3)ccc12 [Ia-24, 2-(1H-imidazol-1-yl)-8-[(1E)-4-pyrrolidin-1-ylbut-1-en-1-yl]benzo[c]-2,7-naphthyridin-4-amine]
2 | 17 | 400 | > 2000 | 86 | 15 |  | COc1cc2ncc3c(N)nc(-c4cncc(OC[C@@H](N)Cc5ccc(O)cc5)c4)cc3c2cc1OC [Ib-53, 4-((2S)-2-Amino-3-{[5-(4-amino-8,9-dimethoxybenzo[c]-2,7-naphthyridin-2-yl)pyridin-3-yl]oxy}propyl)phenol]
3 | 90 | 2500 | > 2000 | > 2000 | 2000 |  | COc1cc2c(cc1O)ncc1c(N)nc(-n3ccnc3)cc12 [Ia-33, 4-Amino-2-(1H-imidazol-1-yl)-9-methoxybenzo[c]-2,7-naphthyridin-8-ol]
4 | > 100 |  | > 2000 | > 2000 |  |  | COc1cc2ncc3c(N)nc(-c4cncc(OC[C@@H](N)Cc5ccc(F)cc5)c4)cc3c2cc1OCc1ccccc1 [Ia-1, 2-(5-{[(2S)-2-Amino-3-(4-fluorophenyl)propyl]oxy}pyridin-3-yl)-9-(benzyloxy)-8-methoxybenzo[c]-2,7-naphthyridin-4-amine]
5 | 9 | 210 | 1040 | 213 to 365 |  |  | COCCN(C)C[C@H](N)COc1cncc(-c2cc3c(cnc4cc(OC)c(OC)cc43)c(N)n2)c1 [Ib-38, (2S)-3-{[5-(4-amino-8,9-dimethoxybenzo[c]-2,7-naphthyridin-2-yl)pyridin-3-yl]oxy}-N1-(2-methoxyethyl)-N1-methylpropane-1,2-diamine]
6 | 8 |  | 368 | 138 |  |  | COc1cc2ncc3c(N)nc(-c4cncc(O[C@@H]5CCCNC5)c4)cc3c2cc1OC [Ib-33, 8,9-dimethoxy-2-{5-[(3R)-piperidin-3-yloxy]pyridin-3-yl}benzo[c]-2,7-naphthyridin-4-amine]
7 | 104 | 300 | 911 | 1200 |  |  | Nc1nc(-c2cncc(OC[C@@H](N)Cc3ccccc3)c2)cc2c1cnc1ccccc12 [Ia-3, 2-(5-{[(2S)-2-Amino-3-phenylpropyl]oxy}pyridin-3-yl)benzo[c]-2,7-naphthyridin-4-amine]
8 | 4 | < 32 | 223 | 30 to 133 |  |  | COc1cc2ncc3c(N)nc(-c4cncc(OC[C@@H](N)CNc5cccc(F)c5)c4)cc3c2cc1OC [Ib-36, (2S)-3-{[5-(4-amino-8,9-dimethoxybenzo[c]-2,7-naphthyridin-2-yl)pyridin-3-yl]oxy}-N1-(3-fluorophenyl)propane-1,2-diamine]

Continued, compound first:

Row | Compound | IC50 (PDK-1; [1]) [nM] | IC50 (PKA; 20 μM ATP) [nM] | IC50 (PKA; 100 μM ATP) [nM] | IC50 (S6K) [nM] | IC50 (Akt1) [nM] | IC50 (PDK-1) [nM]
9 | COc1cc2ncc3c(N)nc(-c4cncc(OC[C@H](N)Cc5ccc(F)cc5)c4)cc3c2cc1OC [Ib-47, 2-(5-{[(2R)-2-amino-3-(4-fluorophenyl)propyl]oxy}pyridin-3-yl)-8,9-dimethoxybenzo[c]-2,7-naphthyridin-4-amine] | 15 | 25 | 251 | 93 | 12 | 
10 | COc1cc2c(cc1OCCCN1CCCC1)ncc1c(N)nc(-c3cccnc3)cc12 [Ia-31, 9-Methoxy-2-pyridin-3-yl-8-(3-pyrrolidin-1-ylpropoxy)benzo[c]-2,7-naphthyridin-4-amine] | 120 | > 20000 | > 2000 | 422 | 170 | 
11 | Nc1nc(-c2cncc(OC[C@@H](N)Cc3ccccc3)c2)cc2c1cnc1cc(C#CCCn3ccnc3)ccc12 [Ia-5, 2-(5-{[(2S)-2-Amino-3-phenylpropyl]oxy}pyridin-3-yl)-8-[4-(1H-imidazol-1-yl)but-1-yn-1-yl]benzo[c]-2,7-naphthyridin-4-amine] |  | 340 | 872 | 520 | 500 | 
12 | COc1cc2ncc3c(N)nc(-c4cncn4C)cc3c2cc1OC [Ib-63, 8,9-Dimethoxy-2-(1-methyl-1H-imidazol-5-yl)benzo[c]-2,7-naphthyridin-4-amine] | 66 | > 20000 | > 2000 | 1270 | 400 | 
13 | COc1cc2ncc3c(N)nc(-c4cncc(OC[C@H]5CCCN5)c4)cc3c2cc1OC [Ib-61, 8,9-dimethoxy-2-{5-[(2R)-pyrrolidin-2-ylmethoxy]pyridin-3-yl}benzo[c]-2,7-naphthyridin-4-amine] | 43 | 1500 | > 2000 | 7 to 82 | 250 | 
14 | COc1cc2ncc3c(N)nc(-c4cncc(OC[C@@H](N)CN5CCc6ccccc6C5)c4)cc3c2cc1OC [Ib-50, 2-(5-{[(2S)-2-amino-3-(3,4-dihydroisoquinolin-2(1H)-yl)propyl]oxy}pyridin-3-yl)-8,9-dimethoxybenzo[c]-2,7-naphthyridin-4-amine] | 61 | 2100 | > 2000 | 220 | 160 | 
15 | COc1cc2c(cc1OCCCCl)ncc1c(N)nc(-n3ccnc3)cc12 [Ia-17, 8-(3-Chloropropoxy)-2-(1H-imidazol-1-yl)-9-methoxybenzo[c][2,7]naphthyridin-4-amine] | 105 | > 10000 | > 2000 | > 2000 | 280 | 
16 | COc1cc2ncc3c(N)nc(-c4cncc(OC[C@@H](N)Cc5ccc(NC(=O)OCc6ccccc6)cc5)c4)cc3c2cc1OC [Ib-23] | > 100 |  | > 2000 | > 2000 |  | 
17 | COc1cc2ncc3c(N)nc(-c4cncc(OC[C@@H](N)COCc5ccccc5)c4)cc3c2cc1OC [Ib-51, 2-(5-{[(2S)-2-amino-3-(benzyloxy)propyl]oxy}pyridin-3-yl)-8,9-dimethoxybenzo[c]-2,7-naphthyridin-4-amine] | 5 | 340 | 712 | 60 | < 160 | 
18 | Nc1nc(-c2cncc(OC[C@@H](N)Cc3ccccc3)c2)cc2c1cnc1cc(/C=C/CCN3CCCC3)ccc12 [Ia-4, 2-(5-{[(2S)-2-amino-3-phenylpropyl]oxy}pyridin-3-yl)-8-[(1E)-4-pyrrolidin-1-ylbut-1-en-1-yl]benzo[c]-2,7-naphthyridin-4-amine] | 27 | < 32 | 70 | 89 |  | 
19 | COc1cc2ncc3c(N)nc(-c4cncc(OC[C@@H]5CN(c6cccc(F)c6)C(=O)N5)c4)cc3c2cc1OC [Ib-35, (4S)-4-({[5-(4-amino-8,9-dimethoxybenzo[c]-2,7-naphthyridin-2-yl)pyridin-3-yl]oxy}methyl)-1-(3-fluorophenyl)imidazolidin-2-one] | 206 | > 4000 | > 2000 | ≥ 1740 |  | 
20 | COc1cc2ncc3c(N)nc(-c4cncc(OC[C@@H](N)Cc5ccc(F)cc5)c4)cc3c2cc1OC [Ib-41, 2-(5-{[(2S)-2-amino-3-(4-fluorophenyl)propyl]oxy}pyridin-3-yl)-8,9-dimethoxybenzo[c]-2,7-naphthyridin-4-amine] | 3 | < 32 | 183 | 21 to 102 |  | 
21 | COCCOc1cc2ncc3c(N)nc(-c4cccnc4)cc3c2cc1OC [Ia-2, 9-Methoxy-8-(2-methoxyethoxy)-2-pyridin-3-ylbenzo[c]-2,7-naphthyridin-4-amine] |  |  | > 2000 | 542 |  | 43
22 | COc1cc2ncc3c(N)nc(-c4cncc(O[C@H]5CCCNC5)c4)cc3c2cc1OC [Ib-39, 8,9-dimethoxy-2-{5-[(3S)-piperidin-3-yloxy]pyridin-3-yl}benzo[c]-2,7-naphthyridin-4-amine] | 84 | > 4000 | > 2000 | ≥ 1700 |  | 
23 | COc1cc2ncc3c(N)nc(-c4cncc(OC[C@@H](N)Cc5cccc(C(F)(F)F)c5)c4)cc3c2cc1OC [Ib-24, 2-[5-({(2S)-2-amino-3-[3-(trifluoromethyl)phenyl]propyl}oxy)pyridin-3-yl]-8,9-dimethoxybenzo[c]-2,7-naphthyridin-4-amine] | 13 |  | 198 to 219 | 169 to 194 |  | 

From US20080293712A1, “Benzo[C][2,7]Naphtyridine Derivatives, Methods of Making Thereof and Methods of Use Thereof” (WYETH, priority 2007, published 2008)
